This note sets out measurements from the NIST ThermoML archive (doi:10.1016/j.jct.2014.07.026).

± gives the expanded uncertainty stated by the source.

One data set can be described thus: mn = molality of the nth substance listed, in mol/kg. The note with it: 298.15 K; 100 kPa; Liquid; Frequency=2 MHz; Linear variable-path acoustic interferometer; m2 = 0.
As for `O` [water] + CC(C)C[C@H](N)C(=O)[O-].CCCCn1cc[n+](C)c1, the speed of sound – broadly, the propagation velocity of pressure waves in the medium – worked out at 1497.6 ± 2.5 m/s.
Turning to `O` [water] + CCCCn1cc[n+](C)c1.NCC(=O)[O-], the speed of sound came to 1497.6 ± 2.5 m/s.
Still for that read-out and setting: next, `O` [water] + CC(C)[C@H](N)C(=O)[O-].CCCCn1cc[n+](C)c1: 1497.6 ± 2.5 m/s; `O` [water] + CCCCn1cc[n+](C)c1.C[C@H](N)C(=O)[O-]: 1497.8 ± 2.5 m/s; `O` [water] + CCCCn1cc[n+](C)c1.CC[C@H](C)[C@H](N)C(=O)[O-]: 1497.8 ± 2.5 m/s.

Assay in another data set: not given
Conditions: 298.15 K; 100 kPa; Liquid; Frequency=2 MHz; Linear variable-path acoustic interferometer.
Consider `O` [water], for which the speed of sound was found to be 1497.7 ± 2.5 m/s.
